Source: article PMC8646019, “Azvudine is a thymus-homing anti-SARS-CoV-2 drug effective in treating COVID-19 patients” (Signal Transduction and Targeted Therapy, 2021)

How the values were obtained:
SARS-CoV-2 = assay: Multi-color immunofluorescence staining and tissue cytometry (Tissue FAXS) of infected rhesus macaque tissues; type: in vivo, rhesus macaques
Text: To further verify the antiviral effect of FNC in the thymus, viral S-protein in the thymus was detected with immune staining. […] Tissue ACE2 was stained red, and viral S-protein was stained green. More green signals were detected in the thymus of the untreated monkey than in the FNC-treated one. Viral S-protein was quantitatively measured in the thymus with the Tissue FAXS platform and Tissue Quest software (Tissue Gnostics).[10],[26]–[30] […] The results of all eight monkeys are shown in Supplementary Fig. 10. […] Further evaluation of thymus cells undergoing programmed death was done with TUNEL staining, followed by quantitation with Tissue FAXS platform and Tissue Quest software (Tissue Gnostics, described in Methods). As shown in Supplementary Fig. 11, the number of apoptotic thymus cells from the untreated virus (+) monkeys was much higher than that from the FNC-treated ones.
Fig. 5 FNC-protected thymus from the damage by SARS-CoV-2 infection. By the end of the experiment, the RM monkeys have practiced euthanasia, and the thymus samples were collected. a The representative images of the multi-color immunofluorescent staining were for ACE2 (red) and S protein (green) in the thymus of the RM monkeys that were inoculated with SARS-CoV-2 and treated or untreated with FNC. The regions of interest (ROI) are boxed in white, and their magnified photos are shown in the middle, with a decomposition diagram on the right. […] The regions of interest (ROI) are boxed in white, and their magnified photos are shown below. Data are presented as mean ± SEM (n = 4), *p < 0.05, FNC-treated group vs. untreated group, by Mann–Whitney U test TEXT PRINTED IN THE PICTURE: (b) FNC: ACE2 Mean Intensity / ACE2 Area (um2): 26.43%; S-protein Mean Intensity / S protein Area (um2): 9.83% DOUBTS OF THE COPYIST ABOUT THIS PICTURE: Panel b prints no group label. […] They are left out because an untreated control is not a substance. / The percentages in panel b have no printed measure. The axis titles of each plot were used as the measure.
Tyramide Signal Amplification (TSA)^3 method was used for single staining of IL-4, IL-10, IL13, RORγt and tunnel; double staining of CD3 and CD20, ACE2 and S-protein; as well as triple staining of CD3, CD4 and CD8; ACE2, S-protein and N-protein. In brief, for each marker, the samples were treated with rabbit primary antibody and then incubated with HRP-conjugated goat anti-rabbit secondary antibody. After washing, slides were incubated with fluorescent reagent then heated with microwave oven to remove the combined antibodies. The antibodies were in Table S5.
As described by Kaneko and colleagues,^4 microscopy-based multi color tissue cytometry was applied for quantitative analysis. In brief, images of the tissue specimens were acquired through the Tissue FAXS platform (Tissue Gnostics).^5,6 The area of the detected tissue was acquired as a digital gray scale image in four channels with filter settings for FITC, Cy3, Cy5 and DAPI. Cells of each phenotype were identified and quantitated, relative to the positive controls.

thymus cells = type: in vivo, rhesus macaques
[1] = Biodistribution and metabolism of FNC in rats (UHPLC-MS/MS); conditions: male, Sprague-Dawley, in vivo, rat, FNC 5 mg/kg oral, average n=5, read-out: Concentration in kidney
Method: Fig. 2 Thymus-homing distribution and metabolism of FNC after oral administration in rats. Twenty-five male Sprague–Dawley rats were orally administered with FNC at a single dose of 5 mg/kg. At the time point of 1, 2, 6, 12, and 24 h after drug administration, 5 rats were dissected. The blood, as well as the heart, liver, spleen, lung, kidney, brain, thymus, testis, and epididymis, were collected. Peripheral blood mononuclear cells (PBMCs) were isolated from blood using Histopaque-1083. The distribution of FNC in plasma, PBMCs, and the different tissues was evaluated through UHPLC–MS/MS analysis performed on an UHPLC system (1290 series, Agilent Technologies, USA) coupled to a triple quadrupole mass spectrometer (Agilent 6470 QQQ). a Metabolic pathway of FNC. b FNC distribution in tissues and plasma (5 mg/kg, oral). c FNC-TP levels in the blood (5 mg/kg, oral). d FNC-TP levels in tissues (5 mg/kg, oral). e FNC and its phosphate metabolites (FNC-MP, FNC-DP, and FNC-TP) in the thymus (5 mg/kg). f FNC and its phosphate metabolites in PBMCs (5 mg/kg).
25 male Sprague-Dawley rats (200 ± 15 g) were purchased from Vital River Laboratories Co., LTD (Beijng, China). The animals were housed under specific pathogen-free conditions (12 h light/12 h dark photoperiod, 25 ± 2°C, 50±5% relative humidity). All rats were allowed to acclimate for 1 week before experiments. Research was conducted in accordance with all institutional guidelines and ethics and approved by the Laboratories Institutional Animal Care and Use Committee of the Chinese Academy of Medical Sciences and Peking Union Medical College.
Rats were divided randomly into five groups with five rats in each, and were administered with azvudine at a single dose of 5 mg/kg. At the time point of 1h, 2h, 6h, 12h and 24h after drug administration, rats in one group were dissected with euthanization and blood samples were collected using heparin as an anticoagulant. 0.5 ml of blood was transferred to another 1.5ml eppendorf tube to obtain plasma by centrifugation (3500 r/min ×15 min). The tissues, including heart, liver, spleen, lung, kidney, brain, thymus, testis, and epididymis, were collected, and washed with cold 0.9% normal saline, and then kept at -80°C until analysis.
Peripheral blood mononuclear cells (PBMCs) were isolated from blood using Histopaque-1083 according to the manufacturer’s protocol. Firstly, 2 mL of blood collected in heparin sodium tube was diluted with 2 mL of PBS solution. Then, 4mL of diluted blood was layered on top of 4 mL Histopaque-1083 and centrifuged for 30 min at 2000 r/min. PBMCs were then aspirated, washed twice with PBS solution, suspended in PBS, and counted with a hemocytometer. Furtherly, PBMCs were centrifuged (2000 r/min ×10 min), lysed with 1ml of cold 80% methanol for 12h, then ultrasonic for cell disruption (3min). Finally, the cell lysates were stored in -80°C until sample preparation.
Tissue samples were weighed and 2-fold volume of 0.9% saline containing phosphatase inhibitor was added to prepare the homogenate on the ice. Then tissue homogenate was ultrasonic extracted for 5 min in the ice bath. 200μL of plasma or tissue homogenate was transferred into a 1.5 ml eppendorf tube and added 600 μL of methanol solution with internal standards. The sample was vortexed for 5 min and kept at 4°C for 15min, then centrifuged at 13000r/min for 10 min (4°C). […]

[2] = FNC-treated monkeys, n = 4, Tissue FAXS
[3] = FNC-treated monkey #17368, scRNA-seq

[N-]=[N+]=N[C@]1(CO)O[C@@H](n2ccc(N)nc2=O)[C@@H](F)[C@@H]1O [FNC, 2′-deoxy-2′-β-fluoro-4′-azidocytidine]
viral S- and N-protein signal in the lung (immune staining) (SARS-CoV-2; FNC-treated monkeys vs untreated): noticeably reduced | S-protein-positive cells in thymus, proportion (SARS-CoV-2; [2]): 8.36 ± 4.84% | absolute numbers of ACE2+ cells in thymus (SARS-CoV-2; [2]): 38,929 ± 19,470 cells | number of S-protein-positive cells in thymus (SARS-CoV-2; [2]): 8941 ± 5436 cells | relative proportion of ACE2+ cells in thymus (SARS-CoV-2; [2]): 35.96 ± 16.90% | Proportion of B cells in thymus (thymus cells; [3]): 4.1% | Proportion of CD4 cells in thymus (thymus cells; [3]): 17.5% | Proportion of CD8 cells in thymus (thymus cells; [3]): 22.8% | Proportion of NKT cells in thymus (thymus cells; [3]): 4.6% | expression of IL-4, IL-13, and IL-10 in the thymus cells (thymus cells; FNC-treated monkey #17368 vs untreated #17041): elevated | concentration at 1 h ([1]; 1 h): 515 ng/g | concentration at 2 h ([1]; 2 h): 798 ng/g | concentration at 6 h ([1]; 6 h): 269 ng/g | concentration at 12 h ([1]; 12 h): 76.5 ng/g | concentration at 24 h ([1]; 24 h): 78.1 ng/g
